Results reported in patent US11724980B2, “Quinones having high capacity retention for use as electrolytes in aqueous redox flow batteries” (President and Fellows of Harvard College, priority 2018, dated 2023).
In brackets after ≈: the same amount, converted by molar mass. Read-outs that look alike come from different tables or passages of the source.

Assays:
[1] = physchem; type: physicochemical; conditions: for solubility: thermodynamic from solid
Protocol: Solubility limits of all DBEAQ isomers were measured in their oxidized forms by adding the potassium salt of DBEAQ (prepared by reacting DBEAQ with potassium hydroxide in water) until no further solid could be dissolved. After filtering the mixture through a PTFE 0.45 μm syringe filter, a saturated solution of DBEAQ in KOH was obtained. The saturated solution was then diluted by a known amount, and the concentration was evaluated by UV-Vis (Ocean Optics Flame-S Spectrometer Assembly) at 280 and 364 nm. […]
The solubility limit of DPPEAQ was measured in the oxidized form by adding the potassium salt of DPPEAQ (prepared by reacting DPPEAQ with potassium hydroxide in water) until no further solid could be dissolved. The mixture was adjusted to pH 9. After filtering the mixture through a PTFE 0.45 μm syringe filter, a saturated solution of DPPEAQ at pH 9 was obtained. The saturated solution was then diluted by a known amount while maintaining a pH of 9, and the concentration was evaluated by UV-Vis (Agilent Cary 60 spectrophotometer). The concentration was calculated according to a pre-calibrated absorbance-concentration curve of known concentrations of DPPEAQ at pH 9.

[2] = Unbalanced compositionally-symmetric cell cycling; conditions: for temporal fade rate: 0.10 M, pH 12 (0.01 M KOH)
Protocol: As a direct probe of the effect of O-alkylation of anthraquinone on its chemical stability, 2,6-DBEAQ was cycled potentiostatically in a volumetrically unbalanced compositionally-symmetric cell configuration.
Potentiostatic symmetric cell cycling was performed according to a reported procedure^8 in order to assess the temporal chemical stability of DBEAQ, independent of any variations in apparent capacity as a result of changes to membrane resistance, and in a configuration where there is negligible water or reactant crossover due to the same DBEAQ concentration being used in both electrolytes. […] 5 mL of the resulting electrolyte was used as the capacity-limiting side of a volumetrically unbalanced compositionally-symmetric cell, while the remaining 10 mL was used as the non-capacity-limiting side, i.e., with twice the nominal capacity of the capacity-limiting side. […].
The cycling stability of the DPPEAQ electrolyte was also studied by a previously published symmetric cell method.^24 Although the oxidized form of DPPEAQ is readily soluble at pH 9, proton-coupled electron transfer raises the pH of the electrolyte when it is reduced. Such pH fluctuations can produce misleading results in symmetric cell testing unless the starting pH is above the cutoff point for proton-coupled electron transfer.

[3] = pH 14 KOH, literature (ref 3); cited from earlier work
[4] = cited from earlier work
[5] = cited from earlier work; remark: listed apart in the source
[6] = previous study (ref 3/17); cited from earlier work
[7] = CV simulation as two one-electron reductions; type: physicochemical; conditions: same AQ:AQ2− ratio, from E1-E2 separations
Protocol: FIG. 6. Capacitance-corrected CV of 5 mM 2,6-DBEAQ in 1 M KOH (solid grey line). The dashed red line represents the simulated total current arising from two successive one-electron reductions with reduction potentials of −0.517 and −0.511 V vs. SHE, according to the procedure outlined in a previous publication.^1 Each simulated reduction has a rate constant ko=7×10^−3 cm/s and α=0.5.
A first CV experiment was performed in which 2,6-DBEAQ was dissolved in pH 14 KOH solution at a concentration of 5 mM. CV measurements were plotted in FIG. 5A and include results for the isomers of 2,6-DBEAQ.
Following our previous study on 2,6-DHAQ^17 and literature reports^1,18 on quinone electrochemistry in the absence of proton donors, we simulated the CV of 2,6-DBEAQ as representing two reversible electron transfer steps at two different potentials E1 and E2. The separation between simulated redox potentials for the first (E1) and second (E2) electron reductions for 2,6-DBEAQ is considerably narrower than the corresponding peak separation for 2,6-DHAQ^17 (6 mV vs. 60 mV).
The pH dependence of the proton-coupled electron transfer (POET) redox reaction for a generalized anthraquinone (AQ) is often visualized by the nine-membered square scheme (FIG. 7). The horizontal direction indicates electron transfer (ET), and the vertical direction indicates proton transfer (PT or protonation). Under strongly alkaline conditions, where the pH is higher than the second pKa (pKa2) of the reduced AQ (AQ^2−), no protonation of the semiquinone anion will take place, and reduction proceeds via two ET steps, from AQ to a semiquinone (AQ-^●) at E1, and from AQ-^● to AQ^2− at E2 which is typically <E1. Depending on the value of E1-E2, the mechanism of AQ reduction in alkaline conditions can either be a concerted one-step, two-electron process or two single-electron processes. […]

[8] = Rotating disk electrode study with Levich analysis; type: physicochemical; conditions: 5 mM in 1 M KOH, Levich plot
Protocol: Glassy carbon was used as the working electrode for all three-electrode CV tests. RDE experiments were conducted using a Pine Instruments Modulated Speed Rotator AFMSRCE equipped with a 5 mm diameter glassy carbon working electrode, a Ag/AgCl reference electrode (BASi, pre-soaked in 3 M NaCl solution), and a graphite counter electrode. The electrode was rotated at a specific speed while the voltage was linearly swept from −0.4 to −0.11 V vs. Ag/AgCl (FIG. 4A). […]. RDE experiments were conducted using a Pine Instruments Modulated Speed Rotator AFMSRCE equipped with a 5 mm diameter glassy carbon working electrode, a Ag/AgCl reference electrode (BASi, pre-soaked in a 3 M KCl solution), and a graphite counter electrode. […]

[9] = physchem; type: physicochemical; conditions: 0.1 M
Protocol: FIGS. 24A-24D. Comparison of the stability of DPPEAQ with respect to alkyl chain cleavage to that of 2,6-DBEAQ at pH 14. ^1H NMR spectra (500 MHz, 10 mM NaCH3SO3 internal standard, δ 2.6 ppm) of (A) DPPEAQ at pH 14; (B) DPPEAQ at pH 14, treated for 5.5 days at 95° C. and 0.1 M concentration; (C) 2,6-DBEAQ at pH 14; (D) 2,6-DBEAQ at pH 14, treated for 5.5 days at 95° C. and 0.1 M concentration. […] The relative integrals and splitting of the peaks in the spectra of DPPEAQ after treatment are consistent with the products of (3-hydroxypropyl)phosphonate cleavage. Samples of DPPEAQ at 0.1 M concentration and pH 14 in both the oxidized and reduced form were stored in FEP bottles and heated in an oven at 65° C. for 2 weeks. The extent of decomposition was determined by ^1H NMR, with peak integrals measured relative to an internal standard of NaCH3SO3 prepared at 10 mM concentration in D2O.
By performing elevated temperature chemical stability studies, we have identified that the cleavage of γ-hydroxybutyrate is involved in the decomposition of the oxidized form of 2,6-DBEAQ (FIGS. 10A-10C and FIGS. 11A-11D), and we have characterized the time course of γ-hydroxybutyrate cleavage at pH 12 and pH 14 and at 0.1 M and 0.5 M concentration (FIG. 12 and FIGS. 13A-13C). […]; these observations are consistent with long redox flow battery lifetime at typical operating cell conditions.
We designed an analogue of 2,6-DBEAQ but with phosphonate-terminated functional groups, DPPEAQ, appearing to deliver both of these desired outcomes.
The differing relative stabilities of DPPEAQ and 2,6-DBEAQ at pH 12 (at 95° C. and 0.1 M concentration), in contrast to the similar extent of their observed decomposition at pH 14, may be due to a competition between multiple decomposition mechanisms that vary in a pH-dependent manner. The concentration of hydroxide ions at pH 14 is tenfold higher than the concentration of either molecule at 0.1 M, as opposed to tenfold lower at pH 12. In particular, we propose a hydroxide-mediated nucleophilic substitution reaction (SNAr or SN2) that dominates the decomposition of both molecules at pH 14. However, at a lower pH of 12, an intramolecular reaction with carboxylate acting as the nucleophile dominates in the decomposition of 2,6-DBEAQ, while no analogous intramolecular reaction of DPPEAQ at pH 12 can take place due to much weaker nucleophilicity of bulked phosphonate compared with carboxylate. The difference in the dominant mechanisms of 2,6-DBEAQ decomposition at pH 12 and 14 that we are proposing is also consistent with the observation that the initial rate of degradation is not 100-fold slower at pH 12 relative to pH 14. […] In addition, the operability at lower pH serves to decrease the corrosion of battery systems and enable the use of less expensive materials.

[10] = Cyclic voltammetry on glassy carbon electrode; type: physicochemical
Protocol: Glassy carbon was used as the working electrode for all three-electrode CV tests. RDE experiments were conducted using a Pine Instruments Modulated Speed Rotator AFMSRCE equipped with a 5 mm diameter glassy carbon working electrode, a Ag/AgCl reference electrode (BASi, pre-soaked in 3 M NaCl solution), and a graphite counter electrode. The electrode was rotated at a specific speed while the voltage was linearly swept from −0.4 to −0.11 V vs. Ag/AgCl (FIG. 4A). […].
A second CV experiment was performed in which 2,6-DBEAQ was dissolved in pH 14 KOH solution at a concentration of 2 mM. CV measurements were plotted in FIG. 4C. The standard equilibrium potential was determined to be −0.49 V vs. SHE. The separation between the peaks in the CV curves was 42 mV, indicating fairly rapid and reversible electrochemical reactions at the surface of the electrodes.

Compound: O=C(O)CCCOc1ccc2c(c1OCCCC(=O)O)C(=O)c1ccccc1C2=O [1,2-DBEAQ]
- Solubility (M) at pH 14 (pH 12) [1]: 0.9 M
- temporal fade rate [2]: greater than 0.1 %/day

Compound: O=C(O)CCCOc1cccc2c1C(=O)c1c(OCCCC(=O)O)cccc1C2=O [1,8-DBEAQ]
- Solubility (M) at pH 14 (pH 12) [1]: 0.75 M
- temporal fade rate [2]: > 10 %/day

Compound: O=C1c2ccc(O)cc2C(=O)c2ccc(O)cc21 [2,6-DHAQ, 2,6-dihydroxyanthraquinone]
- room temperature solubility [3]: 600 mM
- solubility ([1]; pH 12, aqueous buffer): 100 mM (≈ 24 mg/mL)
- solubility ([1]; pH 14, aqueous buffer): 60 mM (≈ 14.4 mg/mL)
- capacity fade rate ([4]; reported (refs 21,22)): 5 %/day
- temporal capacity fade rate ([2]; pH 14 (1 M KOH), 0.10 M (2,6-DBEAQ also 0.65 M)): 5 %/day
- reduction potential ([5]; comparison value for 2,6-DHAQ): −680 mV vs. SHE
- redox peak separation ([5]; literature (ref 3)): ~90 mV
- E1-E2 separation [6]: 60 mV
- Keq_comp for semiquinone formation, times higher than for 2,6-DBEAQ [7]: 2.83 times

Compound: O=C1c2ccc(S(=O)(=O)O)cc2C(=O)c2ccc(S(=O)(=O)O)cc21 [AQDS, 9,10-anthraquinone-2,6-disulfonate]
- temporal fade rate ([4]; lowest previously reported quinone-based electrolyte (refs 10,11)): 0.1-0.2 %/day

Compound: O=C1c2ccc(OCCCP(=O)(O)O)cc2C(=O)c2ccc(OCCCP(=O)(O)O)cc21 [DPPEAQ, (((9,10-dioxo-9,10-dihydroanthracene-2,6-diyl)bis(oxy))bis(propane-3,1-diyl))bis(phosphonic acid)]
- diffusion coefficient for the oxidized form [8]: 1.37×10^−6 cm^2/s
- solubility ([1]; pH 9, aqueous buffer, pH 9, read-out: solubility of the oxidized form): 750 mM (≈ 363 mg/mL)
- capacity fade ([2]; 0.1 M, pH 13, cycled 6 days): 0.02 %/day
- decomposition ([9]; pH 9, 6 days at 95° C.): no significant decomposition
- decomposition ([9]; pH 12, 6 days at 95° C.): no significant decomposition
- decomposition ([9]; pH 14, 5.5 days at 95° C.): 45%
- chemical stability of the reduced form ([9]; pH 14, 12 days at 65° C.): robust chemical stability
- pH above which the potential is pH-independent ([10]; Pourbaix diagram): ~12.4
- redox potential (E1/2) ([10]; buffered pH 9): −0.39 V vs. SHE
- redox potential (E1/2) ([10]; buffered pH 12): −0.47 V vs. SHE
- Pourbaix diagram slope ([10]; fit to data below pH 12): −30 mV/pH
- redox potential (E1/2) ([10]; pH 9 unbuffered aqueous solution): −0.47 V vs. SHE
- redox potential (E1/2) ([10]; pH 12 unbuffered aqueous solution): −0.49 V vs. SHE
